One experiment relates to Jurkat and HL-60 cells. Briefly: Release of Omi, Smac and cytochrome c to the cytosol and procaspase-3 processing (immunoblot of cytosolic extracts). Type of experiment: cell-based, human. The following applies: staurosporine 2 μM. On the procedure: FIG. 13 is a scanned image of a blot representing cytosolic extracts from human Jurkat and HL-60 cells bound to GST-BIR3 and immunoblotted with Omi (top panels), Smac (second panels), Cytochrome c (third panels), or caspase-3 (lower panels) antibodies.
FIG. 14 is a scanned image of a blot representing cytosolic extracts of Jurkat cells treated with TRAIL (1 μg/ml) for the indicated time periods and analyzed by immunoblotting with Omi (top panel), Smac (middle panel), or cytochrome c (bottom panel) antibodies.
To determine whether Omi is released together with Smac and cytochrome c from the mitochondria to the cytoplasm during apoptosis, we treated Jurkat and HL-60 cells with staurosporine (2 μM), which is known to induce the mitochondrial apoptotic pathway, and analyzed their cytosolic extracts by immunoblot analysis. […] Processing of procaspase-3 also followed a similar time course with maximum processing observed at 6-8 hours after treatment. Very little or no Omi or Smac proteins or processing of procaspase-3 were detected in the extracts at zero-time points.

Another experiment relates to Hela cells. Briefly: Immunofluorescence confocal microscopy of Omi in Hela cells. Type of experiment: cell-based, human. The following applies: staurosporine 1 μM, 5 hours; untreated cells mostly punctate and perinuclear.
A further experiment concerns 293 and MCF-7 cells. Briefly: Caspase-dependent processing of GFP-IETD-Omi at the IETD site in transfected cells (immunoblot). Format: cell-based. The following applies: cytosolic extracts, zVAD-FMK 20 μM. On the procedure:
FIG. 23 is a scanned image of an immunoblot with Flag-HRP antibody of MCF-7 and 293T cells 24 hours following transfected with pEGFP or M-Omi-Flag, GFP-IETD-AVP (AVP) or GFP-IETD-SSA (SSA) expression constructs in the presence or absence of zVAD-FMK (20μM). M-Omi-Flag is similar to the M-Omi-GFP shown in FIG. 20, except that the GFP tag was replaced with a Flag tag.
(§1) Next, the contribution of the IAP binding activity of Omi to its proapoptotic activity was tested. The MTS of Omi was replaced with a GFP-IETD sequence and mutated at its active site Ser306 to Ala (FIG. 20, GFP-IETD-AVP). Of note, the presence of the IETD sequence between GFP and Omi-S/A allowed caspase-dependent cleavage at the IETD site after the Asp residue and release of mature Omi-S/A in the cytosol of the transfected 293 and MCF-7 cells (FIG. 23). […] Taken together, Omi not only can induce apoptosis through its serine protease activity but also via its ability to bind and neutralize IAPs.
Background: Immunoblotting shows a protein as a band on a membrane.

For another experiment, the system named is MCF-7 cells. Briefly: Apoptosis of MCF-7 cells transfected with cytosolic Omi-GFP fusion proteins. Type of experiment: cell-based. The following applies: zVAD-FMK 20 μM; MCF-7 cells transfected with M-Omi-GFP. The method, then:
FIG. 20 provides schematic diagrams of the Omi-GFP and GFP-IETD-Omi constructs used to assay the ability of Omi to induce apoptosis or to enhance apoptosis by other stimuli.
FIG. 21 is a bar graphic representation of the percentages of GFP-positive apoptotic MCF-7 cells 36 hours following transfection with M-Omi-S/A-GFP or pEGFP-N1 alone or M-Omi-GFP together with empty vector or expression construct encoding XIAP, XIAP-BIR3, or caspase-9DN. The cells were also transfected with M-Omi-GFP expression construct in the presence of zVAD-FMK (20 μM).

The target in a further experiment is T1, XIAP-BIR3 (Homo sapiens, UniProt P98170).
T1 construct: Omi associates directly with the BIR3 domain of XIAP
Kind of experiment: GST-BIR3 precipitation of extracts of transfected 293T cells. The following applies: 24 hours after transfection. Type of experiment: binding. On the procedure: FIG. 24 is a scanned image of an immunoblot with Flag-HRP antibody of 293T cells extracts precipitated with GST-BIR3 24 hours after transfection with the indicated expression constructs extracts.
as §1

Where a SMILES comes first, the peptide text is derived from it. The star is where a group is joined. Cbz = O=C(OCc1ccccc1)*; CH2F = FC*

T1 sequence (P98170 238-358 limits assumed): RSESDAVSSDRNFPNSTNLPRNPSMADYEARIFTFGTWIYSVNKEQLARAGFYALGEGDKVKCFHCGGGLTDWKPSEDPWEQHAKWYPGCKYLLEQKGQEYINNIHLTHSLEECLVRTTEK

Turning to `CN[C@@H]1C[C@H]2O[C@@](C)([C@@H]1OC)n1c3ccccc3c3c4c(c5c6ccccc6n2c5c31)C(=O)NC4` [staurosporine], in the experiment with Jurkat and HL-60 cells, the “accumulation of cytochrome c, Smac and Omi in the cytosol” value is “accumulated in the cytosol of these cells in a time dependent manner”; the “time of maximum processing of procaspase-3 after treatment” value fell in the range of 6 to 8 h. Moreover, the “immunofluorescence staining pattern of Omi” value with Hela cells is on record as “showed diffused immunofluorescence staining of Omi”.
Regarding `COC(=O)C[C@H](NC(=O)[C@H](C)NC(=O)[C@@H](NC(=O)OCc1ccccc1)C(C)C)C(=O)CF` [zVAD-FMK, reference compound] (Cbz-Val-Ala-Asp(OMe)-CH2F), in the experiment with 293 and MCF-7 cells, the “processing at the IETD site” value was “very little or no processing at the IETD site was observed”. For the same compound, the “block of M-Omi-GFP-induced apoptosis” value in the experiment on MCF-7 cells is reported as “did not block the ability of M-Omi-GFP to induce apoptosis”.
Turning to “mature Omi-S/A: mature Omi-S/A released in the cytosol by caspase-dependent cleavage of GFP-IETD-AVP at the IETD site”, the “binding to XIAP-BIR3 (GST-BIR3)” value with XIAP-BIR3 is listed as “able to bind the GST-BIR3 fusion protein”.
